Reference: patent US20240209022A1, “NOVEL PEPTIDE HAVING ANTI-INFLAMMATORY AND TISSUE REGENERATIVE ACTIONS” (KOREA RESEARCH INSTITUTE OF BIOSCIENCE AND BIOTECHNOLOGY, priority 2020, published 2024)

Tests used:
Assay type in all cases: in vivo, C57BL/6J mice
[1] = tested on: gastritis/gastric ulcer model; experiment: HCl/ethanol gastritis/gastric ulcer model; conditions: vs PBS buffer group; for degree of gastric mucosal damage (score): oral, 1 hour after HCl/ethanol; for Cox2 expression in gastric mucosal tissue / Il-1p expression in gastric mucosal tissue / Tnfα mRNA expression in gastric mucosal tissue / iNos mRNA expression in gastric mucosal tissue: RT-qPCR
Method: For a gastritis/gastric ulcer model, 7-week-old male C57BL/6J mice were used, and from 3 days before induction, the peptides of the present invention were dissolved in PBS buffer and then orally administered to the mice by 150 μL per animal at the same time once a day. Amuc_1409 or PEP001, PEP002, PEP003, PEP004, or PEP005 was dissolved in PBS buffer at a concentration of 6.7 μM, and novel tetrapeptides PEP006, PEP007, PEP008, PEP009, and PEP010 and novel tripeptides PEP011, PEP012, and PEP013 were each dissolved in PBS buffer at a concentration of 0.15 μg/150 μL (PEP006) or 0.2 μg/150 μL (PEP007, PEP008, PEP009, PEP010, PEP011, PEP012, and PEP013). For the induction of acute gastritis/gastric ulcer, 0.3 M HCl/60% ethanol was orally administered to the mice by 0.2 mL for each, the tissue was harvested after 1 hour, photographs of the inner surface of the stomach were taken, and the degree of damage to the stomach was compared. Measurements of gastritis/gastric ulcer indexes were converted into scores according to the degree of mucosal damage. A score of 0 was given if there was no damage, a score of 1 was given to an insignificant circle-shaped hemorrhagic corrosion site of less than 5 mm, a score of 2 was given to a hemorrhagic corrosion site with a length more than 5 mm, and a score of 3 was given to one or more hemorrhagic corrosion sites corresponding to the score of 2, a score of 4 was given to a hemorrhagic corrosion of more than 5 mm in length and less than 2 mm in width, a score of 5 was given to 2 to 3 hemorrhagic corrosions corresponding to the score of 4, a score of 6 was given to 4 to 5 hemorrhagic corrosions corresponding to the score of 4, a score of 7 was given to 6 or more hemorrhagic corrosions corresponding to the score of 4, and a score of 8 was given if there was hemorrhagic corrosion throughout the gastric mucosa. In order to confirm additional anti-inflammatory activity of the administered peptides, mRNA expression of inflammation-related genes, Tnfα, Il-1β, iNos, Cox2, and Il-10, in the gastric mucosal tissue was examined.

[2] = tested on: depression and anxiety model; experiment: LPS-induced depression and anxiety model (TST, FST, EPM); conditions: vs PBS buffer group; for immobility time in forced swim test / immobility time in tail suspension test: oral, LPS-induced; for Ifnγ mRNA expression in brain tissue (hippocampus) / Il-10 mRNA expression in brain tissue (hippocampus): RT-qPCR
Method: By Daehan Biolink, 7-week-old male C57BL/6J mice weighing 20-22 g were supplied, and the animals were sufficiently supplied with solid feed and water until the day of the experiment, acclimatized for 1 week while maintaining an environment with a temperature of 22° C. 2° C., a humidity of 55%±15%, and a 12-hour light/dark cycle, and then used in the experiment. From 3 days before inducing depression and anxiety, the peptide was dissolved in PBS buffer and orally administered to the mice by 150 μL per animal at the same time once a day. Amuc_1409 or PEP001, PEP002, PEP003, PEP004, or PEP005 was dissolved in PBS buffer at a concentration of 6.7 μM and then used, and novel tetrapeptides PEP006, PEP007, PEP008, PEP009, and PEP010 and novel tripeptides PEP011, PEP012, and PEP013 were each dissolved in PBS buffer at a concentration of 0.2 μg/150 μL and then used. On the 3rd day of peptide administration, lipopolysaccharide (LPS) dissolved in PBS buffer was intraperitoneally injected at a concentration of 0.8 mg/kg to induce depression and anxiety. Tail suspension test (TST) and forced swim test (FST) were conducted to analyze the effect on depression. As the TST, a tail suspension device was installed in an open white acrylic box of 20 cm×25 cm×30 cm size, and the mouse was suspended upside down at a height where the mouse's tail would not touch the floor, and then the time for which the mouse maintained immobility while observing in the same environment was measured for 6 minutes. […] Water at around 25° C. was filled in a transparent acrylic cylinder (45 cm depth×18 cm diameter) up to 30 cm from the bottom, the mouse was exposed to water, and the time for which the mouse maintained immobility while swimming was measured for 6 minutes. […] An elevated plus-maze (EPM) test was performed to analyze the effect on anxiety level. The EPM device consists of two open arms (50 cm×10 cm) and two […] (50 cm×10 cm) at a height of 50 cm from the floor, and the arms are connected by a central area of 10 cm×10 cm. At the start of the experiment, the mouse was placed in the center of the maze and the time for which the mouse stayed in the open arm was measured for a total of 5 minutes using a video camera, and the percentage of time spent in the open arm was calculated and recorded [(time spent in open arm/time spent in open and closed arms)×100]. In addition, in order to examine the anti-inflammatory activity according to the administration of Amuc_1409 and PEP001, PEP002, PEP003, PEP004, and PEP005 in an animal model of depression and anxiety, the expression of Ifnγ and Il-10 mRNA, which are major inflammatory genes related to depression, in brain tissue (hippocampus) was examined.

[3] = tested on: full-thickness skin defect wound-induced model; experiment: Full-thickness skin defect wound-induced model (tail); conditions: 120 μM, 25 μL applied once a day for 28 days; vs vehicle
Method: In order to confirm the tissue regeneration efficacy of the novel peptides, an experiment was conducted using a wound-induced model induced by a full-thickness skin defect of mouse's tail. For a full-thickness skin defect wound-induced model, 9-week-old specific pathogen free (SPF) male C57BL/6J mice were anesthetized, and then in order to indicate full-thickness wounding, a full-thickness wound with a size of 10 mm×3 mm was made on the dorsal part of the mouse's tail, about 1.0 cm away from the base of the mouse's tail, using an aseptic dissection mass No. 10. Bleeding was stopped by compressing the wound, and the wound was covered with a film spray dressing (Cavilon, 3M). For 28 days from the day of wound induction, Amuc_1409 or PEP001 to PEP013 were each dissolved in vehicle (50% ethanol, 20% propylene glycol, 30% water) at a concentration of 120 μM and then applied to the wound site by 25 μL per animal once a day. For the control group, the same volume of vehicle (50% ethanol, 20% propylene glycol, 30% water) was applied to the wound site. The test was terminated on day 29 after wound induction. In order to observe the wound healing effect, the wound sites of animals in each test group were individually photographed using a digital camera at a constant height from the wound for 28 days at 7-day intervals from the day of wound induction, and the wound area was measured using the Image J Soft program.

Substance	degree of gastric mucosal damage (score) [1]	immobility time in forced swim test [2]	immobility time in tail suspension test [2]	wound area [3]	wound size (visually confirmed) [3]	Cox2 expression in gastric mucosal tissue [1]	Il-1p expression in gastric mucosal tissue [1]	Tnfα mRNA expression in gastric mucosal tissue [1]	iNos mRNA expression in gastric mucosal tissue [1]	Ifnγ mRNA expression in brain tissue (hippocampus) [2]	Il-10 mRNA expression in brain tissue (hippocampus) [2]	time spent in the open arm, elevated plus-maze test [2]
IGAY (PEP008)	decreased to a significant level	tended to decrease	decreased	significantly decreased	rapidly decreased							
AVSSI (PEP002)	significantly decreased	significantly decreased	significantly decreased	significantly decreased	rapidly decreased	significantly decreased	significantly decreased	significantly decreased	significantly decreased	significantly decreased	significantly increased	increased
AQS [PEP011]	significantly decreased	tended to decrease	decreased	significantly decreased	rapidly decreased							
AGS [PEP012]	significantly decreased	tended to decrease	decreased									
RGAY (PEP007)	decreased to a significant level	tended to decrease	decreased	significantly decreased	rapidly decreased							
AVSSIKGAY (PEP001)	significantly decreased	significantly decreased	significantly decreased	significantly decreased	rapidly decreased	significantly decreased	significantly decreased	significantly decreased	significantly decreased	significantly decreased	significantly increased	increased
KGAY (PEP003)	significantly decreased	significantly decreased	significantly decreased	significantly decreased	rapidly decreased	significantly decreased	significantly decreased	significantly decreased	significantly decreased	significantly decreased	significantly increased	increased
SGAY (PEP009)	decreased to a significant level	tended to decrease	decreased	significantly decreased	rapidly decreased							
AVS (AVSSIKGAY) [PEP004]	significantly decreased	significantly decreased	significantly decreased	significantly decreased	rapidly decreased	significantly decreased	significantly decreased	significantly decreased	significantly decreased	significantly decreased	significantly increased	increased
AGAY (PEP006)	significantly decreased	tended to decrease	decreased	significantly decreased	rapidly decreased							
GAY [PEP005]	significantly decreased	significantly decreased	significantly decreased	significantly decreased	rapidly decreased	significantly decreased	significantly decreased	significantly decreased	significantly decreased	significantly decreased	significantly increased	increased
VGAY (PEP010)	significantly decreased	tended to decrease	decreased	significantly decreased	rapidly decreased							
AIS [PEP013]	significantly decreased	tended to decrease	decreased	significantly decreased	rapidly decreased							
